Laboratory results from patent publication US20140349943A1, “TOPICAL FORMULATIONS OF CHEMERIN C15 PEPTIDES FOR THE TREATMENT OF DERMATOLOGICAL CONDITIONS” (priority 2011, published 2014).
Values joined by “and” are separate entries in the source; they are usually repeats but may differ in a detail not shown here. Equal values may be shown once. Peptide text beside a SMILES is read from it.

How the values were obtained:
[1] = tested on: K5.Stat3C recombinant mice; test: K5.Stat3C mouse model of psoriasis (TPA induced lesions); type: in vivo; settings: expected
Procedure: In this example, the therapeutic activity of a human chemerin C15 peptide is tested in a mouse model of psoriasis. K5.Stat3C recombinant mice resemble human psoriasis based on clinical, histological, immunophenotypic, and biochemical criteria used to evaluate animal models of psoriasis. The K5.Stat3C mice constitutively express activated […] in keritinocytes and epidermal hyperplasia upon stimulation with 12-0-tetradecanoylphorbol-13-acetate (TPA) topical treatment.
In an exemplary protocol, mice are treated topically on the ear with TPA (e.g. 3.4 nmol TPA in acetone) or acetone control to induce skin lesions 3 times per week for 4-8 weeks. Real-time PCR in skin samples is used to confirm upregulation of cytokine expression, including IL-23, IL012, TNF-α, IL-β, and/or IL-6. Following induction of skin lesions, formulations comprising the human chemerin C15 peptide or vehicle control are applied topically to the skin lesions daily for 6-12 days. Improvement in the lesions is assessed daily.

[2] = Franz cell skin penetration, C15 in 50% DMSO in water; type: in vitro ADME, human
Excerpt: The objective of the study was to determine whether human C15 peptide would diffuse through in vitro human skin maintained under flow-through conditions in Franz cells with 50% DMSO in water. 50% DMSO is considered an acceptable maximum for penetration enhancement.
The samples used in the study were mouse and human chemerin C15 peptides stored at −20 C°. The skin sample used was human skin obtained from mammoplasty. A frozen sample was stored at −20 C.° for 30 days. A fresh sample was obtained in tissue media and antibiotics and used within 3 days.
1. A 1% solution of mouse C15 in 50% DMSO in water was applied to previously frozen human skin to develop the HPLC method for subsequent tests with human C15. This was done in triplicate. 2. A 2% solution of human C15 in 50% DMSO in water was applied to fresh human skin and epidermis, dermis, and receptor fluid were analyzed for C15.
Skin was rinsed, blotted dry, cut into circular pieces and conditioned in the Franz cell for 2 hours prior to C15 application. Flow-through, water-jacketed diffusion cells that exposed a skin area of 2.54 cm2 were used. The cells were maintained at 37° C., operated under static conditions and stirred at 700 rpm for 24 hr. PBS (pH=7.0) was used as the receptor fluid. C15 solutions in 50% DMSO in water was prepared on the day of the experiments.
400 μl of each C15 solution was pipetted in aliquots of 100 μl onto the skin surface and the diffusion cell sealed with parafilm. Diffusion cells were run in triplicate with a single control consisting of skin treated with vehicle only. Receptor fluid (≈5 mL) was collected at the end of 24 hours and concentrated by evaporation prior to analysis. The skin was blotted dry, tape-stripped three times to remove residual C15 and heat-separated at 50° C. into epidermis and dermis. Epidermis was sonicated in 5% TCA for 10 minutes and the supernatant analyzed. Dermis was minced and homogenized in 5% TCA and the supernatant concentrated and analyzed.
For the mouse C15 experiment only the receptor fluid was analyzed.
A reverse-phase HPLC method was developed to quantify Human C15 (Shimamura et al., 2009). The separation was achieved using a Phenomenex Gemini™ C18 column (Cat. No. 00B-4439-E0, 4.6×50 mm, 3 μm) at 40° C. in the Shimadzu 20A system. The mobile phase was mixed with (A) 0.1% formic in water and (B) 0.1% formic acid in acetonitrile. The separation was conducted using a gradient system of 80% A+20% B to 10% A+90% B (0-3 min) and 10% A+90% B (3-3.5 min) at a flow rate of 0.8 ml/min. The injection volume was 5 μl. The eluent was monitored at 275 nm Human C15 was observed as a single peak in the chromatogram with retention time at about 1.8 min. The quantification of Human C15 was achieved by external standard calibration. […]

[3] = Stability of C15 in homogenates of frozen and fresh human skin; type: in vitro ADME
Procedure: An initial study was performed comparing stability of human C15 versus Mouse C15. Homogenates of frozen and fresh human skin were prepared to evaluate the degradation of C15 in skin. Frozen or fresh human skin were separately minced and homogenized in 3 ml water and the supernatant isolated. Supernatant was mixed with solutions of mouse or human C15 to yield a 0.5 mg/ml C15 solution. Each solution was incubated at 37° C. and samples were taken at 0, 1, 2 and 24 hours for analysis of C15 (FIG. 3).

[4] = tested on: mice; test: Contact hypersensitivity assay; type: in vivo, mouse; settings: TNCB hapten; ear thickness; expected
Procedure: In this example, the therapeutic activity of a human chemerin C15 peptide is tested in a contact hypersensitivity assay, which is an in vivo assay of cell-mediated immune function and a model for human allergic contact dermatitis. In this assay, epidermal cells are exposed to exogenous haptens which results in a delayed-type hypersensitive reaction that can be measured and quantified. The Langerhans cell, which is an Ia^+, bone marrow-derived, epidermal cell, initiates sensitization to haptens by presenting antigens to CD4-bearing T lymphocytes, which, in turn, secrete lymphokines and recruit other cells to the site of the reaction.
Contact hypersensitivity consists of the afferent or initial sensitizing phase, and the efferent or elicitation phase. During the efferent phase, when epidermal cells encounter a particular antigen to which they have previously been exposed, localized swelling occurs (in rodents) and in humans results in eczema of the skin.
In an exemplary protocol, mice are shaved and the skin of their abdomens exposed to a hapten. After 6 days (the afferent phase), the baseline ear thickness is measured prior to initiation of the efferent phase. Finally, the ear is treated epicutaneously with the hapten solution and ear thickness is measured at approximately 24 hr. […]

[5] = 2% human C15 in 50% DMSO, fresh human skin, % absorbed of the applied dose, listed as C15
[6] = after 24 hours, 37° C., 0.5 mg/ml

Structure (SMILES) | cytokine expression in the psoriatic lesions ([1]; topical daily for 6-12 days) | psoriatic phenotype of the epidermis ([1]; visual inspection and histological examination) | % C15 in skin compartment, epidermis [2, 5] | % C15 in skin compartment, receptor fluid [2, 5] | penetration through human skin, in words ([2]; in vitro flow-through conditions, 50% DMSO in water) | C15 degradation in homogenate from fresh skin [3, 6] [%] | C15 degradation in homogenate from frozen skin [3, 6] [%] | relative stability in skin homogenate ([3]; human vs mouse C15) | allergic response (contact hypersensitivity) [4] | C15 receptor fluid level ([2]; 1% mouse C15 in 50% DMSO, frozen human skin) [%]
C[C@H](N)C(=O)NCC(=O)N[C@@H](CCC(=O)O)C(=O)N[C@@H](CC(=O)O)C(=O)N1CCC[C@H]1C(=O)N[C@@H](Cc1c[nH]cn1)C(=O)N[C@@H](CO)C(=O)N[C@@H](Cc1ccccc1)C(=O)N[C@@H](Cc1ccc(O)cc1)C(=O)N[C@@H](Cc1ccccc1)C(=O)N1CCC[C@H]1C(=O)NCC(=O)N[C@@H](CCC(N)=O)C(=O)N[C@@H](Cc1ccccc1)C(=O)N[C@@H](C)C(=O)O [C15 (human)] (H-AGEDPHSFYFPGQFA-OH; N-terminus and C-terminus assumed) | decreased cytokine expression | improvement in the psoriatic phenotype of the epidermis | 8.76% and 7.38% and 2.67% | 0.02% and 0.09% and 0.01% | does penetrate through human skin | 98 | 25 | more stable than mouse C15 | prevention, suppression and/or treatment of the allergic response | 
CC(C)C[C@H](NC(=O)[C@H](Cc1ccccc1)NC(=O)[C@H](Cc1ccc(O)cc1)NC(=O)CNC(=O)[C@H](Cc1c[nH]cn1)NC(=O)[C@@H]1CCCN1C(=O)[C@H](CC(=O)O)NC(=O)[C@H](CCC(=O)O)NC(=O)CNC(=O)[C@H](C)N)C(=O)N1CCC[C@H]1C(=O)NCC(=O)N[C@@H](CCC(N)=O)C(=O)N[C@@H](Cc1ccccc1)C(=O)N[C@@H](C)C(=O)O [mC15] (H-AGEDPHGYFLPGQFA-OH; N-terminus and C-terminus assumed) |  |  |  |  |  |  |  |  |  | 0.3
